Converted amounts (≈) assume the structure as drawn. Like-named read-outs stand apart in the source and are kept apart here.
Tests used:
S. aureus 6538P = test: Broth microdilution MIC, S. aureus 6538P; type: cell-based; conditions: Staphylococcus aureus, read-out: Minimum inhibitory concentration, S. aureus 6538P
[1] = tested on: methicillin-resistant S. aureus (MRSA) ATCC 43300; test: Broth microdilution MIC, MRSA 43300; type: cell-based, Staphylococcus aureus; conditions: for MIC: Staphylococcus aureus, read-out: Minimum inhibitory concentration, MRSA 43300; for improvement in activity relative to pleuromutilin (1): Gram-positive bacteria (S. aureus strains), MIC ratio to 1
E. coli ΔTolC = test: Broth microdilution MIC, E. coli ΔTolC; type: cell-based; conditions: Escherichia coli, read-out: Minimum inhibitory concentration, E. coli ΔTolC
[2] = tested on: vancomycin-resistant Enterococcus (VRE); test: Broth microdilution MIC, VRE; type: cell-based; conditions: for MIC: Enterococcus, VRE, 24 h, read-out: Minimum inhibitory concentration, VRE
[3] = Microscale solubility by optical density (plate reader); conditions: 37 °C, aqueous buffer, kinetic from dmso stock
[4] = parameters: method as in earlier work; conditions: cited from earlier work
E. coli MC1061 = test: Broth microdilution MIC, E. coli MC1061; type: cell-based; conditions: Escherichia coli
[5] = broth microdilution, 37 °C, 16–18 h, MIC = lowest concentration inhibiting >90% of growth
[6] = broth microdilution, 37 °C, MIC = lowest concentration inhibiting >90% of growth
[7] = MC1061, broth microdilution, 37 °C, 16–18 h, MIC = lowest concentration inhibiting >90% of growth, read-out: Minimum inhibitory concentration, E. coli MC1061

Row | Compound | MIC (S. aureus 6538P) | MIC [1] | MIC (E. coli ΔTolC) | MIC [2] | solubility at 1 day [3] | water solubility [4] | MIC (E. coli MC1061; MC1061, read-out: Minimum inhibitory concentration, E. coli MC1061) | MIC (S. aureus 6538P; [5]) | MIC [1, 5] | MIC [2, 6] | MIC (E. coli MC1061; [7]) | improvement in activity relative to pleuromutilin (1) [1] | potency compared to 1, VRE ([2]; MIC ratio to 1)
1 | C=C[C@]1(C)C[C@@H](OC(=O)CO)[C@]2(C)[C@H](C)CC[C@]3(CCC(=O)[C@H]32)[C@@H](C)[C@@H]1O [compound 1, Pleuromutilin] | 3.12 µM (≈ 1.18 µg/mL) | 3.12 µM (≈ 1.18 µg/mL) | 3.12 µM (≈ 1.18 µg/mL) | 12.5 µM (≈ 4.73 µg/mL) | 50 to 100 µM (≈ 18.9 to 37.9 µg/mL) | 20 µg/mL (≈ 52.8 µM) | 3.12 µM (≈ 1.18 µg/mL) |  |  |  |  |  | 
2 | C=C[C@]1(C)C[C@@H](OC(=O)CSCCO)[C@]2(C)[C@H](C)CC[C@]3(CCC(=O)[C@H]32)[C@@H](C)[C@@H]1O [compound 25] |  |  | 0.391 µM (≈ 0.172 µg/mL) |  | > 200 µM |  |  | 0.781 µM (≈ 0.343 µg/mL) | 0.781 µM (≈ 0.343 µg/mL) | 3.12 µM (≈ 1.37 µg/mL) | 3.12 µM (≈ 1.37 µg/mL) |  | 
3 | C=C[C@]1(C)C[C@@H](OC(=O)CSCCN=[N+]=[N-])[C@]2(C)[C@H](C)CC[C@]3(CCC(=O)[C@H]32)[C@@H](C)[C@@H]1O [compound 28] |  |  | 0.195 µM (≈ 0.0904 µg/mL) |  | 25 to 50 µM (≈ 11.6 to 23.2 µg/mL) |  |  | 0.391 µM (≈ 0.181 µg/mL) | 0.391 µM (≈ 0.181 µg/mL) | 1.56 µM (≈ 0.723 µg/mL) | 12.5 µM (≈ 5.8 µg/mL) | 8 fold | 8 fold
4 | C=C[C@]1(C)C[C@@H](OC(=O)CSCCOCCN=[N+]=[N-])[C@]2(C)[C@H](C)CC[C@]3(CCC(=O)[C@H]32)[C@@H](C)[C@@H]1O [compound 29] |  | 0.391 µM (≈ 0.199 µg/mL) | 0.391 µM (≈ 0.199 µg/mL) |  | 25 to 50 µM (≈ 12.7 to 25.4 µg/mL) |  |  | 0.781 µM (≈ 0.397 µg/mL) |  | 3.12 µM (≈ 1.58 µg/mL) | 25 µM (≈ 12.7 µg/mL) | 8 fold | 
5 | C=C[C@]1(C)C[C@@H](OC(=O)CSCCOCCOCCN=[N+]=[N-])[C@]2(C)[C@H](C)CC[C@]3(CCC(=O)[C@H]32)[C@@H](C)[C@@H]1O [compound 30] |  |  | 0.391 µM (≈ 0.216 µg/mL) |  | 50 to 100 µM (≈ 27.6 to 55.2 µg/mL) |  |  | 0.781 µM (≈ 0.431 µg/mL) | 0.781 µM (≈ 0.431 µg/mL) | 3.12 µM (≈ 1.72 µg/mL) | 25 µM (≈ 13.8 µg/mL) |  | 
6 | C=C[C@]1(C)C[C@@H](OC(=O)CSCCOCCOCCOCCN=[N+]=[N-])[C@]2(C)[C@H](C)CC[C@]3(CCC(=O)[C@H]32)[C@@H](C)[C@@H]1O [compound 31] |  |  | 0.391 µM (≈ 0.233 µg/mL) |  | 100 to 200 µM (≈ 59.6 to 119 µg/mL) |  |  | 0.781 µM (≈ 0.465 µg/mL) | 0.781 µM (≈ 0.465 µg/mL) | 3.12 µM (≈ 1.86 µg/mL) | 50 µM (≈ 29.8 µg/mL) |  | 
7 | C=C[C@]1(C)C[C@@H](OC(=O)CSCCOCCOCCOCCOCCN=[N+]=[N-])[C@]2(C)[C@H](C)CC[C@]3(CCC(=O)[C@H]32)[C@@H](C)[C@@H]1O [compound 32] |  |  | 0.391 µM (≈ 0.25 µg/mL) |  | 100 to 200 µM (≈ 64 to 128 µg/mL) |  |  | 0.781 µM (≈ 0.5 µg/mL) | 0.781 µM (≈ 0.5 µg/mL) | 3.12 µM (≈ 2 µg/mL) | 25 µM (≈ 16 µg/mL) |  | 
8 | C=C[C@]1(C)C[C@@H](OC(=O)CSCCOCCO)[C@]2(C)[C@H](C)CC[C@]3(CCC(=O)[C@H]32)[C@@H](C)[C@@H]1O [compound 43] |  |  | 0.391 µM (≈ 0.189 µg/mL) |  | > 200 µM |  |  | 0.781 µM (≈ 0.377 µg/mL) | 0.781 µM (≈ 0.377 µg/mL) | 3.12 µM (≈ 1.51 µg/mL) | 6.25 µM (≈ 3.02 µg/mL) |  | 
9 | C=C[C@]1(C)C[C@@H](OC(=O)CSCCOCCOCCO)[C@]2(C)[C@H](C)CC[C@]3(CCC(=O)[C@H]32)[C@@H](C)[C@@H]1O [compound 44] |  |  | 0.391 µM (≈ 0.206 µg/mL) |  | > 200 µM |  |  | 0.781 µM (≈ 0.411 µg/mL) | 1.56 µM (≈ 0.822 µg/mL) | 3.12 µM (≈ 1.64 µg/mL) | 12.5 µM (≈ 6.58 µg/mL) |  | 
10 | C=C[C@]1(C)C[C@@H](OC(=O)CSCCOCCOCCOCCO)[C@]2(C)[C@H](C)CC[C@]3(CCC(=O)[C@H]32)[C@@H](C)[C@@H]1O [compound 45] | 0.781 µM (≈ 0.446 µg/mL) |  | 0.781 µM (≈ 0.446 µg/mL) |  | > 200 µM |  |  |  | 1.56 µM (≈ 0.89 µg/mL) | 3.12 µM (≈ 1.78 µg/mL) | 12.5 µM (≈ 7.13 µg/mL) |  | 
11 | C=C[C@]1(C)C[C@@H](OC(=O)CSCCOCCOCCOCCOCCO)[C@]2(C)[C@H](C)CC[C@]3(CCC(=O)[C@H]32)[C@@H](C)[C@@H]1O [compound 46] | 0.781 µM (≈ 0.48 µg/mL) |  | 0.781 µM (≈ 0.48 µg/mL) |  | > 200 µM |  |  |  | 1.56 µM (≈ 0.959 µg/mL) | 3.12 µM (≈ 1.92 µg/mL) | 12.5 µM (≈ 7.69 µg/mL) |  | 
12 | C=C[C@]1(C)C[C@@H](OC(=O)CSCCOCCOCCOCCOCCOCCO)[C@]2(C)[C@H](C)CC[C@]3(CCC(=O)[C@H]32)[C@@H](C)[C@@H]1O [compound 47] | 0.781 µM (≈ 0.515 µg/mL) |  | 0.781 µM (≈ 0.515 µg/mL) |  | > 200 µM |  |  |  | 1.56 µM (≈ 1.03 µg/mL) | 3.12 µM (≈ 2.06 µg/mL) | 25 µM (≈ 16.5 µg/mL) |  | 
13 | C=C[C@]1(C)C[C@@H](OC(=O)CSCCOCCOCCOCCOCCOCCOCCOCCO)[C@]2(C)[C@H](C)CC[C@]3(CCC(=O)[C@H]32)[C@@H](C)[C@@H]1O [compound 48] | 1.56 µM (≈ 1.17 µg/mL) |  | 1.56 µM (≈ 1.17 µg/mL) |  | > 200 µM |  |  |  | 3.12 µM (≈ 2.33 µg/mL) | 3.12 µM (≈ 2.33 µg/mL) | 25 µM (≈ 18.7 µg/mL) |  | 

From article PMC11731290, “Highly Active Oligoethylene Glycol Pleuromutilins via Systematic Linker Synthesis/One-Pot Attachment and a Microscale Solubility Method” (The Journal of Organic Chemistry, 2024)
